Data published in US10131639B2, “Formulations of 2-(tert-butylamino)-4-((1R,3R,4R)-3-hydroxy-4methylcyclohexylamino)-pyrimidine-5-carboxamide” (Signal Pharmaceuticals, LLC, priority 2014, dated 2018).
Where two headings read alike, the source gives them in different places.

Columns and labels:
[1] = Solid state physical stability under stress conditions (XRPD); format: physicochemical; settings: XRPD vs initial material
Description: A portion of the sample was loaded to a 4 mL clear glass vial. Four samples were prepared for each salt. The vials (open) were stored under 4 different stress conditions, respectively.

[2] = Phase 1 study Part 2: single-dose plasma pharmacokinetics, relative bioavailability (tablet vs AIC) and food effect in healthy subjects; format: in vivo, human; settings: for AUC(0-t) / Tmax / AUC(0-inf) / Cmax / Vd/F / half-life: human, plasma; for Vd/F: read-out: Vz/F (apparent total volume of distribution)
Description: Part 2 was an open label, randomized, crossover study with three periods. The study consisted of a screening phase (Days −21 to −2), baseline (Day −1), three treatment/assessment periods, and a follow up phone call.
Twelve eligible subjects reported to the study center on Day −1 of Period 1 for confinement and baseline assessments.
All subjects fasted overnight for at least 10 hours prior to dosing. For Treatment F, subjects received a standard high-fat breakfast 30 minutes before dosing. Dosing occurred 30 minutes (±5 minutes) after serving the meal.
Treatments D and E were administered in the morning following an overnight fast of at least 10 hours. Subjects who received Treatments D and E (fasted) continued to fast for at least 4 hours after dosing. For Treatment F, subjects received a standard high fat (approximately 50% of the total caloric content of the meal), high calorie (approximately 800 to 1000 calories) breakfast 30 minutes before dosing. The meal derived approximately 150, 250, and 500 to 600 calories from protein, carbohydrates, and fat, respectively. Subjects consumed the entire meal within 30 minutes of serving. Dosing occurred 30 minutes (±5 minutes) after serving the meal.
Actual sampling times were used in the calculation of PK parameters.
AUCt: AUC from time zero to the last quantifiable concentration.
AUC∞: AUC from time zero extrapolated to infinity.
Cmax: Maximum observed plasma concentration.
CL/F: Apparent total plasma clearance when dosed orally.
Vz/F: Apparent total volume of distribution when dosed orally.
t1/2: Terminal phase elimination half-life.
Geometric least squares (LS) means, ratio (fed/fasted) and 90% confidence intervals (CIs) of the ratio of geometric LS means were from an analysis of variance (ANOVA) model with treatment, period, and sequence as fixed effects, and subject nested within sequence as a random effect on the natural log-transformed pharmacokinetics.
The median, median difference (fed-fasted), and 90% confidence interval of the median difference were from the Hodges-Lehmann estimate.

[3] = 200 mg tablet vs 2×100 mg capsules, single oral dose, fasted
[4] = Comparison E/D: 200 mg tablet fasted vs 2×100 mg AIC fasted
[5] = Comparison F/E: 200 mg tablet fed vs fasted
[6] = single oral dose of 200 mg tablet

## C[C@@H]1CC[C@@H](Nc2nc(NC(C)(C)C)ncc2C(N)=O)C[C@H]1O [Compound 1, 2-(tert-butylamino)-4-((1R,3R,4R)-3-hydroxy-4-methylcyclohexylamino)-pyrimidine-5-carboxamide]
[1]; 80° C./75% RH, listed as Compound 1 (free base)
  Physical stability (open vial, 2 weeks): physically stable
[1]; 80° C./75% RH, listed as Free base
  Physical stability (open vial, 2 weeks): no change
[1]; 80° C., listed as Compound 1 (free base)
  Physical stability (open vial, 2 weeks): physically stable
[1]; 80° C., listed as Free base
  Physical stability (open vial, 2 weeks): no change
[2]; [3]
  AUCt and AUC∞ of tablet compared to the capsules: equivalent
  Cmax of tablet lower relative to the capsule formulation: ~17%
[2]; [4]
  AUCt, Ratio (%) of Geometric Means: 92.6%
  AUC∞, Ratio (%) of Geometric Means: 92.9%
  Cmax, Ratio (%) of Geometric Means: 82.9%
[2]; [5]
  AUCt, Ratio (%) of Geometric Means: 100.6%
  AUC∞, Ratio (%) of Geometric Means: 100.8%
  Cmax, Ratio (%) of Geometric Means: 106.4%
[2]; Treatment F: 1×200 mg formulated tablet, single oral dose, fed (high-fat breakfast), geometric mean (geometric CV%), N=12
  AUCτ (time 0 to the last quantifiable concentration): 12000 (27.4) ng · h/mL
[2]; 200 mg, Treatment D: 2×100 mg as AIC, single oral dose, fasted, healthy subjects, geometric mean (geometric CV%), N=12, read-out: AUCτ (time 0 to the last quantifiable concentration)
  AUC(0-t): 12900 ng·h/mL
[2]; oral, 200 mg, Comparison E/D: 200 mg tablet fasted vs 2×100 mg AIC fasted, read-out: tmax, Median Difference
  Tmax: 0.01 h
[2]; oral, 200 mg, Comparison F/E: 200 mg tablet fed vs fasted, read-out: tmax, Median Difference
  Tmax: 0.87 h
[2]; oral, postdose, for all doses (Part 1 and Part 2), read-out: median Tmax
  Tmax: 1.95 to 3 h
[2]; po, 200 mg, Treatment D: 2×100 mg as AIC, single oral dose, fasted, N=12, read-out: AUCt, Geometric Mean (ANOVA LS mean)
  AUC(0-t): 12900 ng·h/mL
[2]; po, 200 mg, Treatment D: 2×100 mg as AIC, single oral dose, fasted, N=12, read-out: AUC∞, Geometric Mean (ANOVA LS mean)
  AUC(0-inf): 13100 ng·h/mL
[2]; po, 200 mg, Treatment D: 2×100 mg as AIC, single oral dose, fasted, N=12, read-out: Cmax, Geometric Mean (ANOVA LS mean)
  Cmax: 2080 ng/mL
[2]; po, 200 mg, Treatment D: 2×100 mg as AIC, single oral dose, fasted, N=12, read-out: tmax, Median (Hodges-Lehmann estimate)
  Tmax: 2 h
[2]; po, 200 mg, Treatment D: 2×100 mg as AIC, single oral dose, fasted, geometric mean (geometric CV%), N=12, read-out: AUC∞
  AUC(0-inf): 13100 ng·h/mL
[2]; po, 200 mg, Treatment D: 2×100 mg as AIC, single oral dose, fasted, geometric mean (geometric CV%), N=12, read-out: Cmax
  Cmax: 2080 ng/mL
[2]; po, 200 mg, Treatment D: 2×100 mg as AIC, single oral dose, fasted, geometric mean (geometric CV%), N=12
  Vd/F: 447 L
[2]; po, 200 mg, Treatment D: 2×100 mg as AIC, single oral dose, fasted, geometric mean (geometric CV%), N=12, read-out: t1/2 (terminal elimination half-life) (converted)
  half-life: 20.3 h
[2]; po, 200 mg, Treatment D: 2×100 mg as AIC, single oral dose, fasted, median (minimum, maximum), N=12, read-out: Tmax
  Tmax: 2 h
[2]; po, 200 mg, Treatment E: 1×200 mg formulated tablet, single oral dose, fasted, N=12, read-out: AUCt, Geometric Mean (ANOVA LS mean)
  AUC(0-t): 11900 ng·h/mL
[2]; po, 200 mg, Treatment E: 1×200 mg formulated tablet, single oral dose, fasted, N=12, read-out: AUC∞, Geometric Mean (ANOVA LS mean)
  AUC(0-inf): 12200 ng·h/mL
[2]; po, 200 mg, Treatment E: 1×200 mg formulated tablet, single oral dose, fasted, N=12, read-out: Cmax, Geometric Mean (ANOVA LS mean)
  Cmax: 1730 ng/mL
[2]; po, 200 mg, Treatment E: 1×200 mg formulated tablet, single oral dose, fasted, N=12, read-out: tmax, Median (Hodges-Lehmann estimate)
  Tmax: 2 h
[2]; po, 200 mg, Treatment E: 1×200 mg formulated tablet, single oral dose, fasted, geometric mean (geometric CV%), N=12, read-out: AUCτ (time 0 to the last quantifiable concentration)
  AUC(0-t): 11900 ng·h/mL
[2]; po, 200 mg, Treatment E: 1×200 mg formulated tablet, single oral dose, fasted, geometric mean (geometric CV%), N=12, read-out: AUC∞
  AUC(0-inf): 12200 ng·h/mL
[2]; po, 200 mg, Treatment E: 1×200 mg formulated tablet, single oral dose, fasted, geometric mean (geometric CV%), N=12, read-out: Cmax
  Cmax: 1730 ng/mL
[2]; po, 200 mg, Treatment E: 1×200 mg formulated tablet, single oral dose, fasted, geometric mean (geometric CV%), N=12
  Vd/F: 477 L
[2]; po, 200 mg, Treatment E: 1×200 mg formulated tablet, single oral dose, fasted, geometric mean (geometric CV%), N=12, read-out: t1/2 (terminal elimination half-life) (converted)
  half-life: 20.1 h
[2]; po, 200 mg, Treatment E: 1×200 mg formulated tablet, single oral dose, fasted, median (minimum, maximum), N=12, read-out: Tmax
  Tmax: 2 h
[2]; po, 200 mg, Treatment F: 1×200 mg formulated tablet, single oral dose, fed, N=12, read-out: AUCt, Geometric Mean (ANOVA LS mean)
  AUC(0-t): 12000 ng·h/mL
[2]; po, 200 mg, Treatment F: 1×200 mg formulated tablet, single oral dose, fed, N=12, read-out: AUC∞, Geometric Mean (ANOVA LS mean)
  AUC(0-inf): 12300 ng·h/mL
[2]; po, 200 mg, Treatment F: 1×200 mg formulated tablet, single oral dose, fed, N=12, read-out: Cmax, Geometric Mean (ANOVA LS mean)
  Cmax: 1840 ng/mL
[2]; po, 200 mg, Treatment F: 1×200 mg formulated tablet, single oral dose, fed, N=12, read-out: tmax, Median (Hodges-Lehmann estimate)
  Tmax: 3 h
[2]; po, 200 mg, Treatment F: 1×200 mg formulated tablet, single oral dose, fed, geometric mean (geometric CV%), N=12, read-out: AUC∞
  AUC(0-inf): 12300 ng·h/mL
[2]; po, 200 mg, Treatment F: 1×200 mg formulated tablet, single oral dose, fed, geometric mean (geometric CV%), N=12, read-out: Cmax
  Cmax: 1840 ng/mL
[2]; po, 200 mg, Treatment F: 1×200 mg formulated tablet, single oral dose, fed, geometric mean (geometric CV%), N=12
  Vd/F: 510 L
[2]; po, 200 mg, Treatment F: 1×200 mg formulated tablet, single oral dose, fed, geometric mean (geometric CV%), N=12, read-out: t1/2 (terminal elimination half-life) (converted)
  half-life: 21.7 h
[2]; po, 200 mg, Treatment F: 1×200 mg formulated tablet, single oral dose, fed, median (minimum, maximum), N=12, read-out: Tmax
  Tmax: 3 h
[2]; po, 200 mg, following a single oral dose of 200 mg, read-out: terminal elimination t1/2 (converted)
  half-life: ~20 h
[2]; single 200 mg dose, Treatment D (FIG. 106)
  correlation of plasma concentrations with whole blood concentration: highly correlated
[2]; single oral 200 mg tablet, healthy subjects
  effect of food on the PK of the tablet formulation: no effect
[2]; [6]
  AUCt and AUC∞ under fed compared to fasted conditions: equivalent
  Cmax higher in the fed state compared to the fasted state: ~6%
